# US11045457B2, “Piperidinyl-3-(aryloxy)propanamides and propanoates” (priority 2018, dated 2021)
# Key:
# SSTR4 [1] = biological target: T1, SSTR4 (Homo sapiens (Human), UniProt P31391); test: SSTR4 I-125 somatostatin competition binding assay (membranes from CHO-K1 cells overexpressing SSTR4); conditions: competition with I-125 labeled somatostatin; for IC50: read-out: SSTR4 Binding pIC50 (converted)
# Experimental: Membranes from CHO-K1 cells overexpressing SSTR4 are purchased from Perkin Elmer (catalog number ES-524-M400UA). Test compounds are suspended in DMSO and then diluted in assay buffer (25 mM HEPES pH 7.4, 10 mM MgCl2, 1 mM CaCl2), 0.5% BSA) plus 0.2 nM I-125 labeled somatostatin (Perkin Elmer catalog number NEX389). […] Then 1 μg of SSTR4 membranes in 50 μL assay buffer are added per well. The Plate is incubated for 60 minutes at room temperature. FilterMat A filters (Perkin Elmer catalog number 1450-421) are pre-soaked in 0.5% PEI (Sigma catalog number P3143). The contents of the assay plate are transferred to filters with a TomTech harvester and washed 5 times with 20 mM HEPES, 100 mM NaCl. The filters are dried in a microwave oven then transferred to sample bag containing a scintillator sheet (Perkin Elmer catalog number 1450-441). The scintillator sheets are melted to filters using a heat block. The filters are then read in a MicroBeta scintillation counter. Binding Ki curves are generated using Activity Base for Screening Data Management and the results are reported as pIC50.
# SSTR4 [2] = biological target: T1, SSTR4; test: Inhibition of forskolin stimulated cAMP in CHO-K1 cells overexpressing SSTR4; format: cell-based; conditions: for EC50: read-out: SSTR4 Activity pEC50 (converted)
# Procedure, shortened: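 Read-out is a HTRF LANCE Ultra cAMP competition using Eu-labelled streptavidin and biotin-cAMP, incubated 60 min at room temperature. It followed a 30 min room-temperature exposure of Kreb's Ringer-washed cells to compound plus forskolin. Potency is expressed as pEC50.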
# T1 sequence (P31391 whole entry): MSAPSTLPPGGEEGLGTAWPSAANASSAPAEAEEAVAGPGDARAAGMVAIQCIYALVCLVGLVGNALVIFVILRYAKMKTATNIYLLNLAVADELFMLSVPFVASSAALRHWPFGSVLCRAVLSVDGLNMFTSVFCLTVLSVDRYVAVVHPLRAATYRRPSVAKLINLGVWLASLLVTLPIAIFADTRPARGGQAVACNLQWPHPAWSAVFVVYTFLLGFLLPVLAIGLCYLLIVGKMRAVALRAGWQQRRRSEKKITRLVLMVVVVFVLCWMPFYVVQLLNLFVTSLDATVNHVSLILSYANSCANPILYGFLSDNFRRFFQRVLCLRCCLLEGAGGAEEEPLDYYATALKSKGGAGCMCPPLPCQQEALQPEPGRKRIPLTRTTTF
SMILES,SSTR4 Activity pEC50 (SSTR4 [2]),further results
"CC[C@@H]1CN(C)CC[C@H]1NC(=O)C(C)(C)COc1ncccc1OC(F)(F)F (racemic) [Example 115, N-(trans-3-ethyl-1-methylpiperidin-4-yl)-2,2-dimethyl-3-((3-(trifluoromethoxy)pyridin-2-yl)oxy)propanamide]",,IC50 (SSTR4 [1]): 0.00501 µM; EC50 (SSTR4 [2]): 0.000631 µM
"Cc1ncccc1[C@@H]1CNCC[C@H]1OC(=O)C(C)(C)COc1ncccc1C(F)(F)F (racemic) [Example 170, trans-3-(2-methylpyridin-3-yl)piperidin-4-yl 2,2-dimethyl-3-((3-(trifluoromethyl)pyridin-2-yl)oxy)propanoate]",,IC50 (SSTR4 [1]): 0.2 µM; EC50 (SSTR4 [2]): 0.0398 µM
"C[C@H]1C[C@@H](NC(=O)C(F)(F)COc2ncccc2C(F)(F)F)CCN1C (racemic) [Example 191, cis-N-(1,2-dimethylpiperidin-4-yl)-2,2-difluoro-3-((3-(trifluoromethyl)pyridin-2-yl)oxy)propanamide]",,IC50 (SSTR4 [1]): 0.2 µM; EC50 (SSTR4 [2]): 0.0794 µM
"Cc1cccnc1OCC(F)(F)C(=O)N[C@@H]1CCN(C)C[C@H]1C (racemic) [Example 199, N-(trans-1,3-dimethylpiperidin-4-yl)-2,2-difluoro-3-((3-methylpyridin-2-yl)oxy)propanamide]",,IC50 (SSTR4 [1]): 0.794 µM; EC50 (SSTR4 [2]): 0.158 µM
"C[C@@H]1CN(C)CC[C@H]1NC(=O)C(C)(C)COc1ncccc1C(F)(F)F (relative stereo) [Example 11, trans-N-(1,3-dimethylpiperidin-4-yl)-2,2-dimethyl-3-((3-(trifluoromethyl)pyridin-2-yl)oxy)propanamide]",8.0,SSTR4 Binding pIC50 (SSTR4 [1]): 7.0
"C[C@@H]1CN(C)CC[C@H]1NC(=O)C(C)(C)COc1ncccc1C(F)(F)F (relative stereo) [Example 109, trans-N-(1,3-dimethylpiperidin-4-yl)-2,2-dimethyl-3-((3-(trifluoromethyl)pyridin-2-yl)oxy)propanamide]",8.0,SSTR4 Binding pIC50 (SSTR4 [1]): 7.0
"CN1CCC(NC(=O)C(C)(C)COc2ncccc2C(F)(F)F)C12CCC2 (stereo not shown) [Example 151, 2,2-dimethyl-N-(5-methyl-5-azaspiro[3.4]octan-8-yl)-3-((3-(trifluoromethyl)pyridin-2-yl)oxy)propanamide]",,EC50 (SSTR4 [2]): 0.158 µM
"Cc1cccnc1OCC(C)(C)C(=O)N[C@H]1CN(C)CC12CC2 [Example 153, (R)-2,2-dimethyl-N-(5-methyl-5-azaspiro[2.4]heptan-7-yl)-3-((3-methylpyridin-2-yl)oxy)propanamide]",8.1,
"Cc1cnc(OCC(C)(C)C(=O)N[C@H]2CN(C)CC23CC3)c(C)c1 [Example 154, (R)-3-((3,5-dimethylpyridin-2-yl)oxy)-2,2-dimethyl-N-(5-methyl-5-azaspiro[2.4]heptan-7-yl)propanamide]",7.4,
"CC(C)(COc1ncccc1C(F)(F)F)C(=O)NC1CCNCC1(F)F (stereo not shown) [Example 159, N-(3,3-difluoropiperidin-4-yl)-2,2-dimethyl-3-((3-(trifluoromethyl)pyridin-2-yl)oxy)propanamide]",6.7,
"CN(C(=O)C(C)(C)COc1ncccc1C(F)(F)F)[C@H]1CCNC[C@@H]1F [Example 160, N-((3S,4S)-3-fluoropiperidin-4-yl)-N,2,2-trimethyl-3-((3-(trifluoromethyl)pyridin-2-yl)oxy)propanamide]",6.4,
"CN1CCC(NC(=O)C(C)(C)COc2ncccc2C(F)(F)F)CC12CC2 (stereo not shown) [Example 175, 2,2-dimethyl-N-(4-methyl-4-azaspiro[2.5]octan-7-yl)-3-((3-(trifluoromethyl)pyridin-2-yl)oxy)propanamide]",6.2,
"C[C@@H]1C[C@@H](NC(=O)C(C)(C)COc2ncccc2C(F)(F)F)CCN1C [Example 177, N-((2R,4S)-1,2-dimethylpiperidin-4-yl)-2,2-dimethyl-3-((3-(trifluoromethyl)pyridin-2-yl)oxy)propanamide]",6.9,
"C[C@H]1C[C@@H](NC(=O)C(C)(C)COc2ncccc2C(F)(F)F)CCN1C [Example 178, N-((2S,4S)-1,2-dimethylpiperidin-4-yl)-2,2-dimethyl-3-((3-(trifluoromethyl)pyridin-2-yl)oxy)propanamide]",,SSTR4 Binding pIC50 (SSTR4 [1]): 6.5
"O=C(N[C@H]1CCNC[C@@H]1F)C(F)(F)COc1ncccc1C1CC1 [Example 198, 3-((3-cyclopropylpyridin-2-yl)oxy)-2,2-difluoro-N-((3S,4S)-3-fluoropiperidin-4-yl)propanamide]",8.2,
"Cc1cccnc1OCC(F)(F)C(=O)N[C@@H]1CCN(C)[C@H](C)C1 [Example 205, N-((2R,4R)-1,2-dimethylpiperidin-4-yl)-2,2-difluoro-3-((3-methylpyridin-2-yl)oxy)propanamide]",6.9,

# Continued, in another order:
SSTR4 Activity pEC50 (SSTR4 [2]),SMILES,further results
8.3,"C[C@@H]1CN(C)CC[C@H]1NC(=O)C(C)(C)COc1ncccc1C1CC1 (relative stereo) [Example 20, trans-3-((3-cyclopropylpyridin-2-yl)oxy)-N-(1,3-dimethylpiperidin-4-yl)-2,2-dimethylpropanamide]",SSTR4 Binding pIC50 (SSTR4 [1]): 7.2
7.7,"CC[C@@H]1CN(C)CC[C@@H]1NC(=O)C(C)(C)COc1ncccc1C(F)(F)F (relative stereo) [Example 111, cis-N-(3-ethyl-1-methylpiperidin-4-yl)-2,2-dimethyl-3-((3-(trifluoromethyl)pyridin-2-yl)oxy)propanamide]",SSTR4 Binding pIC50 (SSTR4 [1]): 6.7
6.7,"CCC1CC(NC(=O)C(C)(C)COc2ncccc2OC(F)(F)F)CCN1C (stereo not shown) [Example 146, N-(2-ethyl-1-methylpiperidin-4-yl)-2,2-dimethyl-3-((3-(trifluoromethoxy)pyridin-2-yl)oxy)propanamide]",
6.3,"CN1C[C@@H](NC(=O)C(C)(C)COc2ncccc2C(F)(F)F)C2(CC2)C1 [Example 173, (S)-2,2-dimethyl-N-(5-methyl-5-azaspiro[2.4]heptan-7-yl)-3-((3-(trifluoromethyl)pyridin-2-yl)oxy)propanamide]",
7.0,"CN1CCC(NC(=O)C(C)(C)COc2ncccc2OC(F)(F)F)CC12CC2 (stereo not shown) [Example 174, 2,2-dimethyl-N-(4-methyl-4-azaspiro[2.5]octan-7-yl)-3-((3-(trifluoromethoxy)pyridin-2-yl)oxy)propanamide]",
8.9,"C[C@H]1CN(C)CC[C@@H]1NC(=O)C(C)(C)COc1ccccc1Cl [Example 193, 3-(2-chlorophenoxy)-N-((3S,4S)-1,3-dimethylpiperidin-4-yl)-2,2-dimethylpropanamide]",
6.5,"CN1CCC(NC(=O)C(C)(C)COc2ccccc2F)CC1 [Example 195, 3-(2-fluorophenoxy)-2,2-dimethyl-N-(1-methylpiperidin-4-yl)propanamide]",
7.1,"CN1CCC(NC(=O)C(C)(C)COc2cccc(F)c2)CC1 [Example 203, 3-(3-fluorophenoxy)-2,2-dimethyl-N-(1-methylpiperidin-4-yl)propanamide]",
6.4,"CN1CCC(NC(=O)C(C)(C)COc2ccc(F)cc2)CC1 [Example 204, 3-(4-fluorophenoxy)-2,2-dimethyl-N-(1-methylpiperidin-4-yl)propanamide]",
5.8,"CN1CCC(NC(=O)C(C)(C)COc2ccc(Cl)cc2)CC1 [Example 217, 3-(4-chlorophenoxy)-2,2-dimethyl-N-(1-methylpiperidin-4-yl)propanamide]",
